From article PMC9120017, “Inhibition mechanism of the chloride channel TMEM16A by the pore blocker 1PBC” (Nature Communications, 2022)

Target: T1, wild-type mouse TMEM16A (Mus musculus, UniProt Q8BHY3)
T1 construct: expressed in transfected cells; host or cells: HEK293T
T1 sequence (Q8BHY3 1-960): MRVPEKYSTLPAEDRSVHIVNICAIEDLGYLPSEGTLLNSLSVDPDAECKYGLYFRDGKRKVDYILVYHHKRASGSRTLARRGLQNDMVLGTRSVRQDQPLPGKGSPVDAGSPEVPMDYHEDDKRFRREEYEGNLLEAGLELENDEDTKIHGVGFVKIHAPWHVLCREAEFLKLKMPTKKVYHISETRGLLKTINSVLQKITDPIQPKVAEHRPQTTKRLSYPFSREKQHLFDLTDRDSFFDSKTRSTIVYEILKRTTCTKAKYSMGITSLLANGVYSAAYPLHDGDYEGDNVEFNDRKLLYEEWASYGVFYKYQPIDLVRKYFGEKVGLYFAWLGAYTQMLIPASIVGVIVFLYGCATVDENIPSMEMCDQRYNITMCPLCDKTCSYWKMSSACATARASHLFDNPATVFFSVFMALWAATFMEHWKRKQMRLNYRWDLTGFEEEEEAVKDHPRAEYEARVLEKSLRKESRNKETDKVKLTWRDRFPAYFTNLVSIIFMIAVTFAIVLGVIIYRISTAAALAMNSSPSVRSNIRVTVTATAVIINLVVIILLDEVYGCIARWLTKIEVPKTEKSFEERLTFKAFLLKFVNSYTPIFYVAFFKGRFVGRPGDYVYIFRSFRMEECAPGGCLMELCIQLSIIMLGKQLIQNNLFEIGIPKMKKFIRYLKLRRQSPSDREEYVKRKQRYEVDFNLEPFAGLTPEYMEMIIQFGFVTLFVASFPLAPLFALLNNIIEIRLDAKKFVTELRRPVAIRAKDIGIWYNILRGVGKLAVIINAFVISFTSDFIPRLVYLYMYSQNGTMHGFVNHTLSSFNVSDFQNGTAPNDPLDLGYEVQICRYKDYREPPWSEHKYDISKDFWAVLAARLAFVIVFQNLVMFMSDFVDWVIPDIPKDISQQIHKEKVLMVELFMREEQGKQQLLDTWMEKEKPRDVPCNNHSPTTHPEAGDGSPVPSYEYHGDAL
Assay: Ultra-fast concentration-jump experiments, kinetics of 1PBC block in inside-out patches
Format: cell-based
Settings: 3 µM 1PBC; excised patches, ultra-fast perfusion
Procedure: HEK293T cells were transfected with 3–4 μg DNA per 6 cm Petri dish using the calcium phosphate co-precipitation method and were used within 24–96 h after transfection. Recordings were performed on inside-out patches excised from HEK293T cells expressing the construct of interest. Patch pipettes were pulled from borosilicate glass capillaries (O.D. 1.5 mm, I.D. 0.86 mm, Sutter Instrument) and were fire-polished with a microforge (Narishige) before use. Pipette resistance was typically 3–8 MΩ when filled with the recording solutions detailed below. Seal resistance was typically 4 GΩ or higher. Voltage-clamp recordings were made using Axopatch 200B, Digidata 1550, and Clampex 10.7 (Molecular Devices). Analog signals were filtered with the in-built 4-pole Bessel filter at 10 kHz and were digitized at 20 kHz. Solution exchange was achieved using a gravity-fed system through a theta glass pipette mounted on an ultra-fast piezo-driven stepper (Siskiyou). […] All recordings were performed at 20 °C.
Supplementary Fig. 2: State dependence of 1PBC block. a, Kinetics of 1PBC block at an intermediate 1PBC concentration and the indicated sub- saturating Ca2+ concentrations in ultra-fast concentration- jump experiments at + 8 0 m V in the inside- out configuration. 1PBC was applied from the intracellular side. […] 6 µM (as determined in Fig. 2a, b) and kon = 1 x 106 M-1s-1. […]

Kinetics of block (time constant): ~ 50 ms
Structure (SMILES): N#Cc1c(C(F)(F)F)cc(O)n2c1nc1ccccc12 [1PBC]
